Results taken from ChEMBL document CHEMBL4840358, “Discovery of Modified Amidate (ProTide) Prodrugs of Tenofovir with Enhanced Antiviral Properties” (J Med Chem, 2021).
Values after ≈ are worked out from the molar mass of the structure shown. Where a name gives a salt, the structure may show the parent alone.

Key:
[1] = Drug uptake in human CCRF-CEM cells assessed as released tenofovir level at 50 uM after 45 mins by ECHO-MS analysis; assay type: ADME, cell-based; conditions: 0.75 h
[2] = Drug uptake in human CCRF-CEM cells assessed as intracellular intact prodrug level at 50 uM after 45 mins by ECHO-MS analysis; assay type: ADME, cell-based; conditions: 0.75 h
[3] = system: Human immunodeficiency virus 1; test: Antiviral activity against HIV-1 infected in MT4 cells assessed as reduction in virus-induced cytopathic effect preincubated for 1 hr followed by viral infection and measured after 5 days by XTT assay; assay type: functional, organism-based; conditions: Human immunodeficiency virus 1, MT4
[4] = Cytotoxicity against in human MT4 cells after 5 days by XTT assay; assay type: cell-based; conditions: time 5 day
[5] = biological target: T1, Lysosomal protective protein (Homo sapiens) (UniProt P10619); test: Substrate activity at cathepsin A (unknown origin) at 30 uM after 30 mins
T1 sequence (whole entry): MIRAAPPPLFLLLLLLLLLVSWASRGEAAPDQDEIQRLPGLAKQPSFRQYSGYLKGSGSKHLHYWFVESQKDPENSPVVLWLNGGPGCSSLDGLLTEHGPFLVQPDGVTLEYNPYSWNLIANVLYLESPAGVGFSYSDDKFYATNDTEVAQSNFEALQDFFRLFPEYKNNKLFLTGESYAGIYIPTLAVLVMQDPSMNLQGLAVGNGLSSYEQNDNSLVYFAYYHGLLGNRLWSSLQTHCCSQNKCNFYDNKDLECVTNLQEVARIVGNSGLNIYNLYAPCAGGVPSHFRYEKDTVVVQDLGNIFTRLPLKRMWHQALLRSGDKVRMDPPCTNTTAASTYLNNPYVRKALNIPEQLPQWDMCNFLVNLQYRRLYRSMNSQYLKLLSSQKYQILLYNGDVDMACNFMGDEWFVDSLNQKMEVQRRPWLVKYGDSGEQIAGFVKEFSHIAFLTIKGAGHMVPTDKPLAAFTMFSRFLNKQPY

[6] = system: Hepatitis B virus; test: Antiviral activity against HBV infected in human HepG2-hNTCP cells assessed as reduction in HBV DNA incubated for day 1 followed by compound washout and fresh compound addition on following day and day 3, 6 and 10 measured on day 14 post infection by qPCR analysis; assay type: functional, organism-based
[7] = Cytotoxicity against human HepG2-hNTCP cells incubated for 3 days by XTT assay; assay type: cell-based; conditions: time 3 day
[8] = Drug metabolism assessed as M9 metabolite formation; assay type: ADME
[9] = Drug metabolism assessed as M11 metabolite formation; assay type: ADME
[10] = Drug metabolism assessed as M5 metabolite formation; assay type: ADME
[11] = Drug metabolism assessed as M12 metabolite formation; assay type: ADME
[12] = Drug metabolism assessed as M1 metabolite formation; assay type: ADME
[13] = Stability of compound in pooled human hepatic microsomes assessed as compound remaining at 5 uM measured upto 30 mins in presence of NADPH by ECHO-MS analysis; assay type: ADME, Microsome; conditions: pooled liver microsomes, read-out: Stability
[14] = Selectivity index, ratio of CC50 for human MT-4 cells to EC50 for HIV-1 infected in MT-4 cells; assay type: toxicity, cell-based; conditions: read-out: Ratio CC50/EC50
[15] = Stability of compound in pooled human plasma assessed as compound remaining at 5 uM measured for 120 to 240 mins by ECHO-MS analysis; assay type: ADME, cell-free; conditions: time 120-240 min, read-out: Stability
[16] = Solubility of compound in water at 25 uM after 24 hrs by HPLC analysis; assay type: physicochemical
[17] = Stability of compound in pooled human plasma assessed as half life at 5 uM measured for 120 to 240 mins by ECHO-MS analysis; assay type: ADME, cell-free; conditions: time 120-240 min
[18] = system: Human immunodeficiency virus 1; test: Antiviral activity against HIV-1; assay type: functional, organism-based
[19] = Chemical stability of compound in pH 4.5 citrate buffer at 25 uM after 24 hrs by HPLC analysis; assay type: physicochemical; conditions: pH 4.5, 24 h
[20] = Chemical stability of compound in pH 10 NaOH-glycin buffer at 25 uM after 24 hrs by HPLC analysis; assay type: physicochemical; conditions: pH 10, 24 h
[21] = Chemical stability of compound in pH 1.5 NaCl-HCl buffer at 25 uM after 24 hrs by HPLC analysis; assay type: physicochemical; conditions: pH 1.5, 24 h
[22] = Drug metabolism in human liver microsomes assessed as formation of metabolite 1; assay type: ADME, Microsome

Compound | Drug uptake [1] [pmol] | Drug uptake [2] [pmol] | EC50 [3] [nM] | CC50 at 120 h [4] [nM] | Activity [5] [pmol/min/mg] | EC50 [6] [nM] | CC50 at 72 h [7] [nM] | selectivity ratio [14] | also measured
CC(C)OC(=O)[C@H](C)N[P@@](=O)(CO[C@H](C)Cn1cnc2c(N)ncnc21)Oc1ccc(C[C@H](NC(=O)CCc2ccccc2)C(=O)OC2CCCC2)cc1 | 27.89 | 0.12 | 0.36 | 11000 | 29.5 | 1.4 | > 50000 |  | 
CC(C)OC(=O)[C@H](C)N[P@@](=O)(CO[C@H](C)Cn1cnc2c(N)ncnc21)Oc1ccc(C[C@H](NCCCc2ccccc2)C(=O)CC2CCCC2)cc1 | 50.12 | 266.22 | 9.6 | 7300 | 10.2 |  |  |  | Drug metabolism [8]: Metabolite_Detected; Drug metabolism [9]: Metabolite_Detected; Drug metabolism [10]: Metabolite_Detected; Drug metabolism [11]: Metabolite_Detected; Drug metabolism [12]: Metabolite_Detected
CC(C)OC(=O)[C@H](C)N[P@](=O)(CO[C@H](C)Cn1cnc2c(N)ncnc21)Oc1ccc(C[C@H](NC(=O)OCc2ccccc2)C(=O)OC2CCCC2)cc1 [listing 1 of 2 here] |  |  |  |  | 33.6 |  |  |  | 
CC(C)OC(=O)[C@H](C)N[P@](=O)(CO[C@H](C)Cn1cnc2c(N)ncnc21)Oc1ccc(C[C@H](NC(=O)OCc2ccccc2)C(=O)CC2CCCC2)cc1 | 148.09 | 102.36 | 0.006 | 9200 | 39.7 | 2.8 | > 50000 | 1.53e+06 | remaining at 0.5 h, 5 µM [13]: 0.04%; remaining at 5 µM [15]: 88%
CC(C)OC(=O)[C@H](C)N[P@](=O)(CO[C@H](C)Cn1cnc2c(N)ncnc21)Oc1ccc(C[C@H](NC(=O)OCc2ccccc2)C(=O)OC2CCCC2)cc1.Cl |  |  |  |  |  |  |  |  | solubility at 24 h, 25 µM [16]: 210 µM
CC(C)OC(=O)[C@H](C)N[P@](=O)(CO[C@H](C)Cn1cnc2c(N)ncnc21)Oc1ccc(C[C@H](NCCCc2ccccc2)C(=O)CC2CCCC2)cc1 | 304.5 | 11.37 | 0.06 | 48000 | 16.3 |  |  | 800000 | remaining at 0.5 h, 5 µM [13]: 1%; remaining at 5 µM [15]: 77%
CC(C)OC(=O)[C@H](C)N[P@@](=O)(CO[C@H](C)Cn1cnc2c(N)ncnc21)Oc1ccc(C[C@@H](NC(=O)OCc2ccccc2)C(=O)OC2CCCC2)cc1 |  |  | 0.33 | 15000 |  |  |  | 45500 | 
CC(C)OC(=O)[C@H](C)N[P@](=O)(CO[C@H](C)Cn1cnc2c(N)ncnc21)Oc1ccccc1.CC(C)OC(=O)[C@H](C)N[P@](=O)(CO[C@H](C)Cn1cnc2c(N)ncnc21)Oc1ccccc1.O=C(O)/C=C/C(=O)O [TENOFOVIR ALAFENAMIDE FUMARATE] | 21.19 | 0.3 | 6.4 | 35000 | 25.8 | 5.3 | > 50000 | 5470 | half-life at 5 µM [17]: 3.45 h; EC50 [18]: 5 nM; remaining at 0.5 h, 5 µM [13]: 70%; remaining at 5 µM [15]: 44%; solubility at 24 h, 25 µM [16]: > 1000 µM
CC(C)OC(=O)[C@H](C)N[P@@](=O)(CO[C@H](C)Cn1cnc2c(N)ncnc21)Oc1ccc(C[C@H](NC(=O)OCc2ccccc2)C(=O)OC2CCCC2)cc1 | 20.25 | 0.22 | 16 | 17000 | 35.9 |  |  |  | half-life at 5 µM [17]: 4.62 h; remaining at 0.5 h, 5 µM [13]: 0.01%; remaining at 5 µM [15]: 56%
COC(=O)[C@H](Cc1ccc(O[P@](=O)(CO[C@H](C)Cn2cnc3c(N)ncnc32)N[C@@H](C)C(=O)OC(C)C)cc1)NC(=O)C(F)(F)F |  |  | 540 | > 50000 |  | 1.6 | > 50000 |  | 
CC(C)OC(=O)[C@H](C)N[P@@](=O)(CO[C@H](C)Cn1cnc2c(N)ncnc21)Oc1ccc(C[C@H](NC(=O)OCc2ccccc2)C(=O)CC2CCCC2)cc1 | 78.88 | 248 | 0.15 | 7600 | 30.3 | 3.4 | > 50000 |  | 
CC(C)OC(=O)[C@H](C)N[P@](=O)(CO[C@H](C)Cn1cnc2c(N)ncnc21)Oc1ccc(C[C@H](NC(=O)OCc2ccccc2)C(=O)OC(C)C)cc1 |  |  | 0.6 | 10000 |  |  |  | 16700 | 
CC(C)OC(=O)OCOP(=O)(CO[C@H](C)Cn1cnc2c(N)ncnc21)OCOC(=O)OC(C)C [TENOFOVIR DISOPROXIL FUMARATE] |  |  |  |  |  |  |  | 656 | EC50 [18]: 50 nM
CCCCCCOC(=O)[C@H](Cc1ccc(OP(=O)(CO[C@H](C)Cn2cnc3c(N)ncnc32)N[C@@H](C)C(=O)OC(C)C)cc1)NC(=O)OCc1ccccc1 (some centres undefined) |  |  | 1.8 | 8400 |  | 1.4 | > 50000 |  | 
CC(C)OC(=O)[C@H](C)N[P@](=O)(CO[C@H](C)Cn1cnc2c(N)ncnc21)Oc1ccc(C[C@H](NC(=O)CCc2ccccc2)C(=O)OC2CCCC2)cc1 | 64.26 | 0.37 | 0.01 | 8800 | 26 | 4.4 | > 50000 | 880000 | remaining at 0.5 h, 5 µM [13]: 0.01%; remaining at 5 µM [15]: 76%
CC(C)OC(=O)[C@H](C)N[P@](=O)(CO[C@H](C)Cn1cnc2c(N)ncnc21)Oc1ccc(C[C@H](NC(=O)OCc2ccccc2)C(=O)OC2CCCC2)cc1.O=C(O)/C=C/C(=O)O |  |  |  |  |  |  |  |  | solubility at 24 h, 25 µM [16]: 104 µM
CC(C)OC(=O)[C@H](C)N[P@@](=O)(CO[C@H](C)Cn1cnc2c(N)ncnc21)Oc1ccc(C[C@H](NCCCc2ccccc2)C(=O)OC2CCCC2)cc1 |  |  | 0.68 | 7600 |  | 4 | > 50000 |  | 
C[C@H](Cn1cnc2c(N)ncnc21)OCP(=O)(O)O [TENOFOVIR ANHYDROUS] |  |  |  |  |  |  |  | 36 | EC50 [18]: 5000 nM
COC(=O)[C@H](Cc1ccc(O[P@@](=O)(CO[C@H](C)Cn2cnc3c(N)ncnc32)N[C@@H](C)C(=O)OC(C)C)cc1)NC(C)=O |  |  | 720 | > 50000 |  | 3.2 | > 50000 |  | 
COC(=O)[C@H](Cc1ccc(O[P@](=O)(CO[C@H](C)Cn2cnc3c(N)ncnc32)N[C@@H](C)C(=O)OC(C)C)cc1)NC(C)=O |  |  | 2200 | > 50000 |  | 7.2 | > 50000 |  | 
CC(C)OC(=O)[C@H](C)N[P@](=O)(CO[C@H](C)Cn1cnc2c(N)ncnc21)Oc1ccc(C[C@H](NCCCc2ccccc2)C(=O)OC2CCCC2)cc1 |  |  | 0.28 | 6000 |  | 19 | > 50000 | 21400 | 
CC(C)CCOC(=O)[C@H](Cc1ccc(O[P@@](=O)(CO[C@H](C)Cn2cnc3c(N)ncnc32)N[C@@H](C)C(=O)OC(C)C)cc1)NC(=O)OCc1ccccc1 |  |  | 0.56 | 8000 |  |  |  | 14300 | 
COC(=O)[C@H](Cc1ccc(O[P@@](=O)(CO[C@H](C)Cn2cnc3c(N)ncnc32)N[C@@H](C)C(=O)OC(C)C)cc1)NC(=O)C(F)(F)F |  |  | 150 | > 50000 |  | 0.27 | > 50000 |  | 
CC(C)OC(=O)[C@H](C)N[P@](=O)(CO[C@H](C)Cn1cnc2c(N)ncnc21)Oc1ccc(C[C@H](NC(=O)OCc2ccccc2)C(=O)OC2CCCC2)cc1 [listing 2 of 2 here] | 73.7 | 0.19 | 0.07 | 10000 |  |  |  | 143000 | Stability [19]: Stable; half-life at 5 µM [17]: 9.63 h; Stability [20]: Unstable; remaining at 0.5 h, 5 µM [13]: 0.01%; Stability [21]: Unstable; remaining at 5 µM [15]: 75%; Drug metabolism [22]: Metabolite_Detected; solubility at 24 h, 25 µM [16]: 53.5 µM (≈ 41 µg/mL)
CC(C)OC(=O)[C@H](C)N[P@](=O)(CO[C@H](C)Cn1cnc2c(N)ncnc21)Oc1ccc(C[C@H](NC(=O)OCc2ccccc2)C(=O)NC2CCCC2)cc1 |  |  | 13 | 28000 |  |  |  | 2150 | 
